# Assay results: patent US7250492B2, “Compositions and methods for inhibition of cancer invasion and angiogenesis” (The Research Foundation at State University of New York, priority 2000, dated 2007)
# Columns and labels:
# seprase-DPPIV complex = target: T1, seprase-DPPIV complex (Homo sapiens, UniProt P27487+Q12884); assay: collagen-degrading activity: peptide release from biotinylated type I collagen gel; type: biochemical; details: 37° C., 8 h; mAb 5 μg/ml, AEBSF 20 μM, CG1847 50 nM
# T1 construct: The seprase-DPPIV complex was isolated from WI38 RIPA extracts using mAbs D28; endogenous in cells; host or cells: WI38 human fibroblasts (RIPA extract, immuno-isolated on mAb D28 or E3 beads)
# T1 sequence (P27487 whole entry, one chain of several): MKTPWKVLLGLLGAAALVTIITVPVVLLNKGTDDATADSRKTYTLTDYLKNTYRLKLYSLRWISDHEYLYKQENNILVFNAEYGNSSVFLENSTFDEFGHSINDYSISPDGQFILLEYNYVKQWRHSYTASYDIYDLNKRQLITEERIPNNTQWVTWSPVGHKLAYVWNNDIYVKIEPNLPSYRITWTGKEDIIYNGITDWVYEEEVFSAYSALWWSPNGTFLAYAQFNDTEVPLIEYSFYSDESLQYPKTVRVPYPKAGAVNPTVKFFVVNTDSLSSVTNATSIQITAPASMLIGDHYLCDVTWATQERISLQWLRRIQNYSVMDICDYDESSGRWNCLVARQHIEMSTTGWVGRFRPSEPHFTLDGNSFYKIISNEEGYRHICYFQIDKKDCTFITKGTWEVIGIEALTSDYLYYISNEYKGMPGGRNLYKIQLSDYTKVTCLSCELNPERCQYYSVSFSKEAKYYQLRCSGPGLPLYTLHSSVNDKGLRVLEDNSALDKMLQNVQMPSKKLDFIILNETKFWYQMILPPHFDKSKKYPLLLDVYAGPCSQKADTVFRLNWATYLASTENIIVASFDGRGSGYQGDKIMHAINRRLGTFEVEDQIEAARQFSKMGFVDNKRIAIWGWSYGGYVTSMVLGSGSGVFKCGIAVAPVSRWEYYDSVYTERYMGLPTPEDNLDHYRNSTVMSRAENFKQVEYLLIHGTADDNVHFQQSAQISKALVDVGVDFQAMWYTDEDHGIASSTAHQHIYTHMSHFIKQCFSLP
# Description: FIG. 9. Collagen-degrading activity of the seprase-DPPIV complex. Collagen-degrading activities of the protease complex and purified DPPIV were determined by the release of peptide fragments from biotinylated type I collagen gel in the presence of these enzymes. The seprase-DPPIV complex was isolated from WI38 RIPA extracts using mAbs D28 (lane marked Ip Seprase) and E3 (lane marked Ip DPPIV) beads, seprase from LOX WGA fraction using mAb D28 (lane marked Ip Seprase*), MMP-2 from media conditioned by MMP-2 COS cell transfectants (lane marked MMP-2), and proteins associated with β3 integrin were from WI38 RIPA extracts using HB242 (lane marked Ip β3 integrin). All enzymes, including the protease complex, purified seprase, MMP-2, and proteins associated with β1 or β3 integrin were applied at the concentration of 50 ng/ml. […]
# Collagen-degrading activity of isolated DPPIV or seprase-DPPIV complex was determined by the release of peptide fragments from biotinylated type I collagen gel by immuno-isolated proteases or the protease complex. […]
# seprase = target: T2, seprase (Homo sapiens, UniProt Q12884); details: cited from earlier work
# T2 sequence (Q12884 1-760): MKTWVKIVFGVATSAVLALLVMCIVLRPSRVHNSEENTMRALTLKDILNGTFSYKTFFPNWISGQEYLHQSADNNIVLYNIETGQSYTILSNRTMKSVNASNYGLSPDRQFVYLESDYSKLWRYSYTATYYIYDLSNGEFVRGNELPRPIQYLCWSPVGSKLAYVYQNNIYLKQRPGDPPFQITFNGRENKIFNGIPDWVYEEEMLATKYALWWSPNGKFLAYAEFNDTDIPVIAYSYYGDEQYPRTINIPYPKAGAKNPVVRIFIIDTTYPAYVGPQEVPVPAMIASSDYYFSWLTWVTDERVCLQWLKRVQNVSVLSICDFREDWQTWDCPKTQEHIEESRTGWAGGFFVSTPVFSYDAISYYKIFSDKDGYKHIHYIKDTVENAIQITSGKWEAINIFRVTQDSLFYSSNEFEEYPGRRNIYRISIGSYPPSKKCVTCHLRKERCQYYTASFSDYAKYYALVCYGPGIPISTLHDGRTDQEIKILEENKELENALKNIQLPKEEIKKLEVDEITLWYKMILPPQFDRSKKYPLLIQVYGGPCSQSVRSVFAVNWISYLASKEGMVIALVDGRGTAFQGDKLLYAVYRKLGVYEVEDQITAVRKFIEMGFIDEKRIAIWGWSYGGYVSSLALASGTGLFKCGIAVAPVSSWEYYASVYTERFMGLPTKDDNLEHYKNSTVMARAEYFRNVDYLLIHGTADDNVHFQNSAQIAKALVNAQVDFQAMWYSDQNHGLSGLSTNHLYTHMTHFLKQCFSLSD
# DPPIV = DPPIV (Homo sapiens, UniProt P27487); details: reversible DPPIV inhibitor; cited from earlier work
# Chain of DPPIV (P27487 whole entry, species assumed): as the sequence (P27487 whole entry, one chain of several) above
Compound,degradation of collagen by the seprase-DPPIV complex (seprase-DPPIV complex),seprase gelatinase activity (seprase),Ki (DPPIV),inhibition of seprase activity (seprase)
NCCc1ccc(S(=O)(=O)F)cc1 [AEBSF],blocked,completely blocked,–,–
N=C(N)c1ccc(CS(=O)(=O)F)cc1 [APSF],–,completely blocked,–,–
NC(CCC(=O)NOC(=O)c1ccccc1)C(=O)N1CCCC1 (stereo not shown) [H-Glu(NHO-Bz)-Pyrr],–,–,500 nM,–
CCN1C(=O)C=CC1=O [NEM],–,–,–,inhibited
O=S(=O)(F)Cc1ccccc1 [PMSF],–,completely blocked,–,inhibits
